# Results as given in patent publication EP1066315B1 (University of Dundee, priority 1998, dated 2008).
# Residues, ends and D or L forms follow the SMILES beside them. *: point of attachment. Fmoc = O=C(OCC1c2ccccc2-c2ccccc21)*
# Test system: peripheral blood mononuclear cells (PBMC) / autologous TTCF specific T cell clones
# Assay: TTCF antigen presentation by PBMC, read out as proliferation of autologous T cell clones
# Format: cell-based, human
# Description: The invention will now be described by reference to the following Examples and Figures wherein • Figure 1: Processing of TTCF by a leupeptin-insensitive cysteine endopeptidase activity. (a) TTCF was digested in vitro in the presence of disrupted lysosomes (1-2 µg) in the presence or absence of iodoacetamide (1 mM), leupeptin, E64 or pepstatin (each at 0.1 mg/ml). Digestions were in 0.1 M NH4 acetate at pH 4.5 or Na2HPO4, pH 6.0 or 7.0. After 4 hours at 37°C, the reactions were separated by Tris-tricine SDS-PAGE and stained with Coomassie Blue. (b) Cleavage sites: TTCF digestion products were separated by SDS PAGE and electrophoretically transferred to nitrocellulose membrane. Individual fragments numbered 1-6 were subjected to 5 cycles of Edman degradation. N-terminal sequence obtained is shown in bold following upstream residues from TTCF (tetanus toxin numbering). The N-terminal sequence of His-tagged TTCF was obtained for fragments 1 and 3. (c) Residues Asn 1184 and Glu 1184 in TTCF were mutated to alanine (see Methods) and digestions performed as before. The mutation abolishes cleavage at the mutated site but not at the first site (doublet at 47 kD). In this experiment cleavage of the third site was minimal. • Figure 2: TTCF is processed by an asparaginyl endopeptidase. (a) Chromatography of the TTCF processing activity on Mono-S resin. Fractions eluted by NaCl gradient were incubated with the substrates Z-Ala-Ala-Asn-NHMec or Z-Phe-Arg-NHMec in the presence or absence of E64 (trans-epoxysuccinyl-L-leucylamido-(4-guanidino)butane). […] (b) Fractions as above were incubated with 10 µg TTCF in the presence or absence of E64 for 4 hours at 37°C prior to SDS-PAGE analysis. (c) Each fraction was analysed by SDS-PAGE and Western blotting. Electrophoretically transferred material was probed with an affinity purified antiserum raised against the peptide KGIGSGKVLKSGPQC from human legumain^1. • Figure 3: Peptide inhibitors of AEP block asparaginyl endopeptidase activity and TTCF processing in vitro and in vivo. (a) TTCF was digested with purified AEP (legumain from pig kidney) in the presence or absence of 0.2 mg/ml of the peptides indicated. […] (b) Purified AEP or a crude lysosomal protease mixture were incubated with Z-Ala-Ala-Asn-NHMec, Z-Phe-Arg-NHMec (cathepsins L&B) or Z-Val-Val-Ala NHMec (cathepsin S) in the presence of increasing concentrations of AENK or AEQK. Release of 7-amino-4-methyl coumarin was measured after 10, 20 or 30 minutes. […] At different times the cells were washed, fixed in 0.05 % glutaraldehyde and co-cultured with autologous TTCF specific T cell clones. […] Proteins obtained from commercial sources, as described in the literature or custom peptides were digested with purified pig kidney legumain at pH 5.5 in the presence of 1 mM DTT. […] When present peptide was maintained during antigen pulsing at 1 mg/ml (a) or 2 mg/ml (b). At different times the cells were washed, fixed in 0.05 % glutaraldehyde and antigen presentation measured using proliferation of different autologous TTCF-specific T cell clones. c, AEP pre-processing of TTCF speeds antigen presentation. […] Presentation was measured after 60 minutes of antigen pulsing using EBV B cells.
# If AEP plays a role in TTCF processing in antigen presenting cells then sufficiently high levels of the competing AENK peptide might be expected to interfere with normal class II MHC loading of TTCF epitopes. Following a 15 minute preincubation with or without tetrapeptides, freshly isolated peripheral blood mononuclear cells (PBMC) were incubated with TTCF antigen in the continued presence or absence of the peptides. At different times, the cells were washed, fixed and then co-cultured with different autologous T cell clones to assess expression of different peptide/MHC complexes. […] At later times there was some recovery of presentation of these epitopes as expected for a competitive inhibitor. […]
# [1] = PBMC, 1 mg/ml peptide, 30 µg/ml TTCF, after 60 minutes of antigen pulsing
smiles,measurement,setting,value
"C[C@H](NC(=O)OCC1c2ccccc2-c2ccccc21)C(=O)N[C@@H](CCC(=O)O)C(=O)N[C@@H](CC(N)=O)C(=O)N[C@@H](CCCCN)C(N)=O [AENK, Ala-Glu-Asn-Lys-NH] (Fmoc-AENK-NH2)",presentation to T cell clone AK 6,[1],profoundly inhibited
same,presentation to T cell clones AK 20 and AK 90,[1],undetectable
same,"presentation to other clones recognising other regions of TTCF (eg AK 111, 71 and 33)","PBMC, 1 mg/ml peptide, 30 µg/ml TTCF, Fig 3c",not affected
same,"presentation to most clones (eg AK 5, 90 & 6) at early times","PBMC, 1 mg/ml peptide, between 30 and 60 minutes of antigen pulsing, Fig 9a",undetactable
same,inhibitory effect on presentation when TTCF pre-digested in vitro by AEP is used,"TTCF pre-digested in vitro by AEP, data not shown",could be overridden
